Assays:
POAAN [1] = experiment: Herbicidal post-emergence action (Table B7); format: in vivo, Poa annua
Method: (§1) Seeds of mono- and dicotyledonous weed plants were placed in plastic pots in sandy loam soil (doubly sown with in each case one species of mono- or dicotyledonous weed plants per pot), covered with soil and cultivated in a greenhouse under controlled growth conditions. 2 to 3 weeks after sowing, the test plants were treated at the one-leaf stage. […] After the test plants had been kept in the greenhouse under optimum growth conditions for about 3 weeks, the activity of the preparations was rated visually in comparison to untreated controls. For example, 100% activity = the plants have died, 0% activity = like control plants.

DIGSA [2] = experiment: Herbicidal pre-emergence action (Table A12); format: in vivo, Digitaria sanguinalis; details: visual grading after ca. 3 weeks
Text: (§2) Seeds of mono- and dicotyledonous weed plants were sown in plastic pots (double sowings with one species of mono- and one species of dicotyledonous weed plants per pot), in sandy loam, and covered with soil.

ECHCG [3] = experiment: Herbicidal pre-emergence action (Table A2); format: in vivo, Echinochloa crus-galli; details: visual grading after ca. 3 weeks
Text: as §2

POAAN [4] = experiment: Herbicidal pre-emergence action (Table A7); format: in vivo, Poa annua; details: visual grading after ca. 3 weeks
Text: as §2

ABUTH = experiment: Herbicidal pre-emergence action (Table A1); format: in vivo, Abutilon theophrasti; details: application rate 1280 g/ha; visual grading after ca. 3 weeks vs untreated controls (100% = plants have died off, 0% = as control plants)
Text: as §2

KCHSC = experiment: Herbicidal pre-emergence action (Table A10); format: in vivo, Kochia scoparia; details: visual grading after ca. 3 weeks
Text: as §2

SETVI [5] = experiment: Herbicidal pre-emergence action (Table A5); format: in vivo, Setaria viridis; details: visual grading after ca. 3 weeks
Text: as §2

STEME = experiment: Herbicidal pre-emergence action (Table A6); format: in vivo, Stellaria media; details: visual grading after ca. 3 weeks
Text: as §2

LOLRI [6] = experiment: Herbicidal pre-emergence action (Table A3); format: in vivo, Lolium rigidum; details: visual grading after ca. 3 weeks
Text: as §2

MATIN = experiment: Herbicidal pre-emergence action (Table A4); format: in vivo, Matricaria inodora; details: application rate 1280 g/ha; visual grading after ca. 3 weeks
Text: as §2

TRZAS [7] = experiment: Pre-emergence effects on crop plants (Table D2); format: in vivo, Triticum aestivum; details: crop plant, visual grading after ca. 3 weeks
ALOMY [8] = experiment: Herbicidal pre-emergence action, section C (Table C2); format: in vivo, Alopecurus myosuroides; details: application rate 320 g/ha; visual grading after ca. 3 weeks
ORYZA [9] = experiment: Post-emergence effects on crop plants (Table F3); format: in vivo, Oryza sativa; details: application rate 320 g/ha, crop plant ORYZA
Text: (§3) 2 to 3 weeks after sowing, the test plants were sprayed in the single-leaf stage.

ORYZA [10] = experiment: Pre-emergence effects on crop plants (Table D3); details: crop plant; application rate 320 g/ha; visual grading after ca. 3 weeks
Text: (§4) Seeds of mono- and dicotyledonous weed plants and crop plants were sown, in plastic or organic planting pots, in sandy loam and covered with soil. The compounds according to the invention, formulated in the form of wettable powders (WP) or as emulsifiable concentrates (EC), were applied to the surface of the covering soil as aqueous suspension or emulsion, with the addition of 0.5% of an additive, at an application rate of 600 1 of water/ha (converted).
(§5) Following treatment, the pots were placed in a greenhouse and kept under optimum growth conditions for the test plants.

VERPE [11] = experiment: Herbicidal pre-emergence action, section C (Table C11); format: in vivo, Veronica persica; details: application rate 320 g/ha; visual grading after ca. 3 weeks
LOLRI [12] = experiment: Herbicidal pre-emergence action, section C (Table C7); format: in vivo, Lolium rigidum; details: application rate 320 g/ha; visual grading after ca. 3 weeks
SETVI [13] = experiment: Herbicidal pre-emergence action, section C (Table C10); format: in vivo, Setaria viridis; details: visual grading after ca. 3 weeks
ZEAMX [14] = experiment: Post-emergence effects on crop plants (Table F1); format: in vivo, Zea mays; details: application rate 320 g/ha, crop plant ZEAMX
Text: as §3

ECHCG [15] = experiment: Herbicidal pre-emergence action, section C (Table C6); format: in vivo, Echinochloa crus-galli; details: visual grading after ca. 3 weeks
VIOTR = experiment: Herbicidal pre-emergence action, section C (Table C12); format: in vivo, Viola tricolor; details: application rate 80 g/ha; visual grading after ca. 3 weeks
Text: (§6) Seeds of mono- and dicotyledonous weed plants and crop plants were sown, in plastic or organic planting pots, in sandy loam and covered with soil. The compounds according to the invention, formulated in the form of wettable powders (WP) or as emulsifiable concentrates (EC), were applied to the surface of the covering soil as aqueous suspension or emulsion, with the addition of 0.5% of an additive, at an application rate of 600 1 of water/ha (converted). Following treatment, the pots were placed in a greenhouse and kept under optimum growth conditions for the test plants.

VERPE [16] = experiment: Herbicidal pre-emergence action (Table A11); format: in vivo, Veronica persica; details: application rate 1280 g/ha; visual grading after ca. 3 weeks
Text: as §2

ALOMY [17] = experiment: Herbicidal pre-emergence action (Table A9); format: in vivo, Alopecurus myosuroides; details: application rate 1280 g/ha; visual grading after ca. 3 weeks
Text: as §2

TRZAS [18] = experiment: Post-emergence effects on crop plants (Table F2); format: in vivo, Triticum aestivum; details: application rate 320 g/ha, crop plant TRZAS
Text: as §3

GLXMA [19] = experiment: Pre-emergence effects on crop plants (Table D4); format: in vivo, Glycine max; details: crop plant, visual grading after ca. 3 weeks
ECHCG [20] = experiment: Herbicidal post-emergence action (Table B3); format: in vivo, Echinochloa crus-galli; details: application rate 1280 g/ha; rated visually after about 3 weeks
Method: as §1

ZEAMX [21] = experiment: Pre-emergence effects on crop plants (Table D1); format: in vivo, Zea mays; details: crop plant, visual grading after ca. 3 weeks
DIGSA [22] = experiment: Herbicidal pre-emergence action, section C (Table C5); format: in vivo, Digitaria sanguinalis; details: application rate 320 g/ha; visual grading after ca. 3 weeks
Text: as §6

BRSNW [23] = experiment: Post-emergence effects on crop plants (Table F5); format: in vivo, Brassica napus; details: crop plant BRSNW
Text: as §3

GLXMA [24] = experiment: Post-emergence effects on crop plants (Table F4); format: in vivo, Glycine max; details: application rate 320 g/ha, crop plant GLXMA
Text: as §3

BRSNW [25] = experiment: Pre-emergence effects on crop plants (Table D5); format: in vivo, Brassica napus; details: crop plant, visual grading after ca. 3 weeks
Text: as §4, §5

ECHCG [26] = experiment: Herbicidal post-emergence action, section E (Table E5); format: in vivo, Echinochloa crus-galli; details: application rate 320 g/ha; assessed visually after ca. 3 weeks
Text: as §3

Row | pre-emergence activity against GLXMA (GLXMA [19]; application rate 80 g/ha) [%] | pre-emergence activity against TRZAS (TRZAS [7]; application rate 80 g/ha) [%] | Compound | pre-emergence activity against POAAN (POAAN [4]; application rate 320 g/ha) [%] | pre-emergence activity against SETVI (SETVI [5]; application rate 320 g/ha) [%] | pre-emergence activity against STEME (STEME; application rate 1280 g/ha) [%] | pre-emergence activity against LOLRI (LOLRI [6]; application rate 1280 g/ha) [%] | pre-emergence activity against MATIN (MATIN) [%] | pre-emergence activity against ALOMY (ALOMY [8]) [%] | post-emergence activity against ORYZA (ORYZA [9]) [%] | post-emergence activity against POAAN (POAAN [1]; application rate 1280 g/ha) [%] | pre-emergence activity against ECHCG (ECHCG [3]; application rate 320 g/ha) [%] | post-emergence activity against ZEAMX (ZEAMX [14]) [%] | pre-emergence activity against ALOMY (ALOMY [17]) [%] | post-emergence activity against TRZAS (TRZAS [18]) [%] | pre-emergence activity against SETVI (SETVI [5]; application rate 1280 g/ha) [%] | post-emergence activity against ECHCG (ECHCG [20]) [%] | pre-emergence activity against SETVI (SETVI [13]; application rate 80 g/ha) [%] | pre-emergence activity against ECHCG (ECHCG [15]; application rate 320 g/ha) [%] | pre-emergence activity against LOLRI (LOLRI [6]; application rate 320 g/ha) [%] | post-emergence activity against BRSNW (BRSNW [23]; application rate 320 g/ha) [%] | also measured
1 | – | – | O=C1N(Cc2ccccc2)CCC12CCCN(Cc1ccccc1F)C2=O (racemic) [I-093] | 100 | 100 | 90 | 100 | 90 | – | – | – | – | – | – | – | – | – | – | – | – | – | post-emergence activity against POAAN (POAAN [1]; application rate 320 g/ha): 90%; pre-emergence activity against DIGSA (DIGSA [2]; application rate 1280 g/ha): 100%; pre-emergence activity against ECHCG (ECHCG [3]; application rate 1280 g/ha): 100%; pre-emergence activity against ABUTH (ABUTH): 90%; pre-emergence activity against KCHSC (KCHSC; application rate 1280 g/ha): 90%
2 | 0 | – | O=C1N(Cc2ccccc2F)CCCC12CCN(Cc1ccccc1Cl)C2=O (racemic) [I-027] | 100 | – | 90 | 100 | 90 | 100 | 0 | 90 | 100 | 0 | 90 | 0 | 100 | 90 | – | – | – | – | pre-emergence activity against TRZAS (TRZAS [7]; application rate 320 g/ha): 0%; pre-emergence activity against ORYZA (ORYZA [10]): 0%; pre-emergence activity against VERPE (VERPE [11]): 90%; pre-emergence activity against LOLRI (LOLRI [12]): 90%; pre-emergence activity against DIGSA (DIGSA [2]; application rate 320 g/ha): 90%; pre-emergence activity against SETVI (SETVI [13]; application rate 320 g/ha): 100%; pre-emergence activity against ECHCG (ECHCG [15]; application rate 80 g/ha): 100%; pre-emergence activity against VIOTR (VIOTR): 90%; pre-emergence activity against VERPE (VERPE [16]): 90%; pre-emergence activity against ZEAMX (ZEAMX [21]; application rate 320 g/ha): 0%; pre-emergence activity against DIGSA (DIGSA [22]): 100%; post-emergence activity against BRSNW (BRSNW [23]; application rate 80 g/ha): 20%
3 | 0 | 10 | O=C1N(Cc2ccsc2)CCCC12CCCN(Cc1cccc(F)c1F)C2=O (racemic) [I-072] | – | – | 90 | – | 90 | 80 | 0 | – | 100 | 0 | – | 0 | 90 | – | 100 | 100 | 100 | 0 | pre-emergence activity against POAAN (POAAN [4]; application rate 1280 g/ha): 90%; post-emergence activity against GLXMA (GLXMA [24]): 0%; pre-emergence activity against BRSNW (BRSNW [25]; application rate 80 g/ha): 20%; pre-emergence activity against KCHSC (KCHSC; application rate 320 g/ha): 90%
4 | – | 0 | Cc1ccccc1CN1CCCC2(CCCN(Cc3ccccc3F)C2=O)C1=O (racemic) [I-044] | 90 | 90 | – | – | 100 | 80 | 0 | 90 | 100 | 0 | 90 | 10 | – | 90 | 100 | 100 | 100 | 0 | pre-emergence activity against BRSNW (BRSNW [25]; application rate 320 g/ha): 0%; pre-emergence activity against GLXMA (GLXMA [19]; application rate 320 g/ha): 0%; post-emergence activity against ECHCG (ECHCG [26]): 80%; pre-emergence activity against STEME (STEME; application rate 320 g/ha): 90%; pre-emergence activity against ZEAMX (ZEAMX [21]; application rate 80 g/ha): 0%

— patent publication EP4273147A1, “SUBSTITUTED SPIROLACTAMS, SALTS THEREOF AND THEIR USE AS HERBICIDALLY ACTIVE SUBSTANCES” (Bayer Aktiengesellschaft, priority 2022, dated 2023)
